The source of these data is patent EP0327744A1, “Oxytocin and vasopressin antagonists” (Merck & Co., Inc., priority 1988, dated 1989).

Where two headings read alike, the source gives them in different places. Numbered stars: 1 amine (or outer) side, 2 acyl side, 3 side chain; on linkers, the order of the positions; unused ones are H or OH. Square brackets hold non-standard residues; d marks the D form. Peptide text beside a SMILES is read from it. ξ: configuration not given here. ξN(OH)Ile(3ξ) = CCC(C)C(NO)C(=O)O; NMeF = CN[CH](Cc1ccccc1)C(=O)O; X1 = O=C(C1CCCNN1[*:1])[*:2]

One assay concerns the target T1, oxytocin receptor (Rattus norvegicus, UniProt P70536).
T1 construct: crude membrane preparation of rat uterus as the source of oxytocin receptors; from tissue; host or cells: rat uterus, crude membrane preparation
T1 sequence (P70536 1-388): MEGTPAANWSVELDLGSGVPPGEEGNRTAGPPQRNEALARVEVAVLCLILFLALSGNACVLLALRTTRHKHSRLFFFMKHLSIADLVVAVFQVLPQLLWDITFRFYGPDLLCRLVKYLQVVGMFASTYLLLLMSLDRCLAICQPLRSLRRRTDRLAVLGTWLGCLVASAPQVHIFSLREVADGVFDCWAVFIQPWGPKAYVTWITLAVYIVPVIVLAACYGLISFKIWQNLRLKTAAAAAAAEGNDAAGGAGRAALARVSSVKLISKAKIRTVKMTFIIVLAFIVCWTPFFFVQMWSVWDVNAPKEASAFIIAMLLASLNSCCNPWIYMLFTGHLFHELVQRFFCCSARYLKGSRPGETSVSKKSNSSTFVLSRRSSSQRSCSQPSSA
The experiment in a line: [³H]Oxytocin Binding Assay (crude membrane preparation of rat uterus). Particulars: inhibition of [³H]oxytocin binding, rat uterus membranes; read-out: IC₅₀ (nM) [³H]OT (uterus). From the text: Oxytocin receptors have been identified in mammalian uterine tissue through the use of in vitro radioligand binding assays. These receptor binding sites mediate the contractile response of the uterine myometrium to oxytocin. […] The assay uses a crude membrane preparation of rat uterus as the source of oxytocin receptors. […]

The target in assay [1] is T2, Vasopressin-stimulated adenylate cyclase in kidney medulla (V₂) (Rattus norvegicus, UniProt Q00788).
T2 construct: Vasopressin-stimulated adenylate cyclase in kidney medulla, therefore, is used as a functional assay; from tissue
The experiment in a line: Vasopressin-stimulated adenylate cyclase functional assay in kidney medulla (V₂ antagonism). The assay is classed as biochemical. From the text: (§1) The table summarizes the in vitro potencies of the various components to compete for ³H-vasopressin binding at two proposed vasopressin receptor subtypes (V₁, V₂), as well as to inhibit vasopressin-stimulated adenylate cyclase activity, a further measure of vasopressin antagonism.
Vasopressin exerts its antidiuretic effects on the kidney through the stimulation of adenylate cyclase activity. Vasopressin-stimulated adenylate cyclase in kidney medulla, therefore, is used as a functional assay to determine the potencies of the various test compounds as V₂-vasopressin antagonists. In this assay, the IC₅₀ values obtained for the various compounds (see Table III) are measures of their potencies to inhibit the vasopressin-stimulated conversion of ATP to cAMP by adenylate cyclase. This method was adapted from Seamon et al., PNAS 78: 3363-3367 (1981).

A further assay deals with T3, V₁(pressor)-receptor (Rattus norvegicus, UniProt P30560).
T3 construct: crude membrane preparation of rat liver (V₁ receptor); from tissue; host or cells: rat liver, crude membrane preparation
Nature of the assay: [³H]Arginine Vasopressin Binding Assay, liver membranes (V₁).
Text: as §1
(§2) The [³H]Arginine Vasopressin Binding Assay is an in vitro procedure which was adapted from the method of Guillon et al., Eur. J. Pharmacol. 85: […] (1982). It measures the relative affinity of the various test compounds for vasopressin receptor(s) labelled by [³H]vasopressin. Vasopressin receptors have been divided into two subtypes pharmacologically: the V₁(pressor)-receptor found in liver and vascular smooth muscle and the V₂(antidiuretic)-receptor found in kidney medulla. The binding assay uses a crude membrane preparation of rat liver (V₁ receptor) or kidney medulla (V₂ receptor) which is incubated with [³H]vasopressin in the presence or absence of the test compound. The IC₅₀ values (concentrations to inhibit [³H]vasopressin binding by 50%) for the various compounds (see Table III) are measures of their potencies and are inversely related to their affinities.

The target in assay [2] is T4, V₂(antidiuretic)-receptor (Rattus norvegicus, UniProt Q00788).
T4 construct: crude membrane preparation of rat liver (V₁ receptor) or kidney medulla (V₂ receptor); from tissue; host or cells: rat kidney medulla, crude membrane preparation
Nature of the assay: [³H]Arginine Vasopressin Binding Assay, kidney medulla membranes (V₂).
Text: as §1, §2

Where [3] appears, read: IC₅₀ Values ³H-Arg⁸-Vasopressin Binding Liver (V₁), rat liver membranes, mean ± standard error.
Setting [4] is: IC₅₀ Values ³H-Arg⁸-Vasopressin Binding Kidney (V₂), rat kidney medulla membranes, mean ± standard error.

T4 sequence (Q00788 whole entry): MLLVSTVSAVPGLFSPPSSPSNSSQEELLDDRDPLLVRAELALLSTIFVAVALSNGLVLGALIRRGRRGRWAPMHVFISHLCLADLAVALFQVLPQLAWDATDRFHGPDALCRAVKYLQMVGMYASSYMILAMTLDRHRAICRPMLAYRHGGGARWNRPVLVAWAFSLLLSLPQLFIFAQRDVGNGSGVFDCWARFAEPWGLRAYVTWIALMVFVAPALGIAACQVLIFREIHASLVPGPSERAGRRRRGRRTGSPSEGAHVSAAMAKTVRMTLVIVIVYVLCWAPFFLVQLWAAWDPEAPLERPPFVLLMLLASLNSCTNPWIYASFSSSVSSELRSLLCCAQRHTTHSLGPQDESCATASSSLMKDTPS
T2 sequence (Q00788 whole entry): as above
T3 sequence (P30560 whole entry): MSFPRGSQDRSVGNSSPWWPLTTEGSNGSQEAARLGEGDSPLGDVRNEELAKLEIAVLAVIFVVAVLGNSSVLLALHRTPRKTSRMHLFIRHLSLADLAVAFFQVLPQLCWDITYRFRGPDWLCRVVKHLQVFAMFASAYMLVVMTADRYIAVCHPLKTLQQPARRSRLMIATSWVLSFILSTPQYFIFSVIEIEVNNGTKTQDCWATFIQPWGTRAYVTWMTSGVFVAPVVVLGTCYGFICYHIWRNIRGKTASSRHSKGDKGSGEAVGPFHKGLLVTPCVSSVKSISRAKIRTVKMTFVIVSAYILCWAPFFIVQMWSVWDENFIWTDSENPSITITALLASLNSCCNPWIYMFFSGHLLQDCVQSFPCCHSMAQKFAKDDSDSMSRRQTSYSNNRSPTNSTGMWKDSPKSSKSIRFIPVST

Regarding `CCC(C)C1NC(=O)C(Cc2ccccc2)NC(=O)C2CCCN2C(=O)C(Cc2ccccc2)N(C)C(=O)C2CCCNN2C(=O)C2CCCNN2C1=O` (centres unmarked) [Example 9] (cyclo([X1][X1][NMeF]PFI); configuration not given here), the IC50 at oxytocin receptor is 170 ± 15 nM.
Turning to `CC(C)CC1C(=O)N2NCCCC2C(=O)N2NCCCC2C(=O)N(C)C(Cc2ccccc2)C(=O)N2CCCC2C(=O)NC(Cc2ccccc2)C(=O)N1O` (centres unmarked) [Component C], the IC50 was 13 µM in assay [1] (read-out: IC₅₀ Values AVP-stimulated Ad. Cyclase Kidney (V₂), kidney medulla, molar IC₅₀ in brackets, based on MW of 700); 12.1 µM in assay [1] (read-out: IC₅₀ Values AVP-stimulated Ad. Cyclase Kidney (V₂), kidney medulla, value in µg/ml (exact MW not known)); 6 µM on V₁(pressor)-receptor (IC₅₀ Values ³H-Arg⁸-Vasopressin Binding Liver (V₁), rat liver membranes, molar IC₅₀ in brackets, based on MW of 700); 5.53 µM on V₁(pressor)-receptor (IC₅₀ Values ³H-Arg⁸-Vasopressin Binding Liver (V₁), rat liver membranes, value in µg/ml (exact MW not known)); 13 µM in assay [2] (IC₅₀ Values ³H-Arg⁸-Vasopressin Binding Kidney (V₂), rat kidney medulla membranes, molar IC₅₀ in brackets, based on MW of 700); 11.9 µM in assay [2] (IC₅₀ Values ³H-Arg⁸-Vasopressin Binding Kidney (V₂), rat kidney medulla membranes, value in µg/ml (exact MW not known)).
On to `CC(C)CC1C(=O)N2NCCCC2C(=O)N2NCCCC2C(=O)N(C)C(Cc2ccccc2)C(=O)N2CCCC2C(=O)NC(C(C)C)C(=O)N1O` (centres unmarked) [Component B], for which the IC50 came to 62.7 ± 4.6 µM in assay [1], 67.3 ± 16.5 µM at V₁(pressor)-receptor (setting [3]) and 35.3 ± 6.1 µM in assay [2] (setting [4]).
Take `CC(C)C1C(=O)N2NCCCC2C(=O)N2NCCCC2C(=O)N(C)C(Cc2ccccc2)C(=O)N2CCCC2C(=O)NC(Cc2ccccc2)C(=O)N1O` (centres unmarked) [Component A]: the IC50 in assay [1] worked out at 19 µM; at V₁(pressor)-receptor (setting [3]), 6.8 µM; in assay [2] (setting [4]) it was 7.9 µM.
Regarding `CCC(C)C1C(=O)N2NCCCC2C(=O)N2NCCCC2C(=O)N(C)C(Cc2ccccc2)C(=O)N2CCCC2C(=O)NC(Cc2ccccc2)C(=O)N1O` (centres unmarked) [Formula I] (cyclo([ξN(OH)Ile(3ξ)][X1][X1][NMeF]PF); configuration not given here), the IC50 was 10.2 ± 1.1 µM in assay [1], 11.7 ± 1.7 µM at V₁(pressor)-receptor, 9.8 ± 1.7 µM in assay [2] and 370 ± 70 nM on oxytocin receptor.
Turning to `CCC(C)C1NC(=O)C2CCCN2C(=O)C(Cc2ccccc2)N(C)C(=O)C2CCCNN2C(=O)C2CCCNN2C(=O)C(CC(C)C)N(O)C1=O` (centres unmarked) [Component D], the IC50 in assay [1] (kidney medulla, molar IC₅₀ in brackets, based on MW of 700, read-out: IC₅₀ Values AVP-stimulated Ad. Cyclase Kidney (V₂) (converted)) is 20 µM; in assay [1] (kidney medulla, value in µg/ml (exact MW not known), read-out: IC₅₀ Values AVP-stimulated Ad. Cyclase Kidney (V₂) (converted)) it was 19.3 µM; at V₁(pressor)-receptor (rat liver membranes, molar IC₅₀ in brackets, based on MW of 700, read-out: IC₅₀ Values ³H-Arg⁸-Vasopressin Binding Liver (V₁) (converted)), 30 µM; at V₁(pressor)-receptor (rat liver membranes, value in µg/ml (exact MW not known), read-out: IC₅₀ Values ³H-Arg⁸-Vasopressin Binding Liver (V₁) (converted)) it was 28.4 µM; in assay [2] (rat kidney medulla membranes, molar IC₅₀ in brackets, based on MW of 700, read-out: IC₅₀ Values ³H-Arg⁸-Vasopressin Binding Kidney (V₂) (converted)), 19 µM; in assay [2] (rat kidney medulla membranes, value in µg/ml (exact MW not known), read-out: IC₅₀ Values ³H-Arg⁸-Vasopressin Binding Kidney (V₂) (converted)) it was 18.3 µM.
